Assay results published in ChEMBL document CHEMBL1201862, “PubChem BioAssay data set” (2004).
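Assay format: 96-well plates, 48-hour exposure. GI50 is the concentration that inhibits growth by half.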 Active and inactive are the calls of the source. Cut-off read from the data, not from the text of the source: active = GI50 up to about 1.1 µM and inactive = higher.

What was measured:
Test in all cases: NCI-60 cell line screen, 48 h
DMS-114 = test system: DMS-114
SNB-78 = test system: SNB-78
M19-MEL = test system: M19-MEL
HOP-18 = test system: HOP-18
KM-20L2 = test system: KM-20L2
RXF 631 = test system: RXF 631
DMS-273 = test system: DMS-273
XF498 = test system: XF498
T47D = test system: T47D

Measured: GI50

CCOC(=O)NC(=O)c1cn(CCCCCCCCCCC(=O)N2CCN(CCn3cc(C(=O)NC(=O)OCC)c(=O)[nH]c3=O)CC2)c(=O)[nH]c1=O
inactive: DMS-114 > 100 µM | SNB-78 > 100 µM | M19-MEL > 100 µM | HOP-18 > 100 µM | KM-20L2 > 100 µM | RXF 631 > 100 µM | DMS-273 > 100 µM | XF498 > 100 µM

O=C1c2ccccc2C2C1N2C(=O)C(F)(F)F (centres undefined)
inactive: DMS-114 39.9 µM | M19-MEL > 100 µM | HOP-18 > 100 µM | KM-20L2 > 100 µM | RXF 631 94.6 µM | DMS-273 > 100 µM | XF498 > 100 µM

CCOC(=O)C1=C(OC(OCC)C(CC)[Se]c2ccccc2)CCCC1 (centres undefined)
inactive: SNB-78 22.3 µM | M19-MEL 15.6 µM | HOP-18 29.7 µM | KM-20L2 19.8 µM | RXF 631 10.2 µM | DMS-273 15.1 µM | XF498 20 µM

CC(=O)O/N=C/c1ncccc1OC(C)=O
inactive: DMS-114 > 100 µM | M19-MEL > 100 µM | HOP-18 > 100 µM | KM-20L2 > 100 µM | RXF 631 > 100 µM | DMS-273 > 100 µM | XF498 > 100 µM

COc1cc2nc(Sc3c([N+](=O)[O-])ncn3C)[nH]c2cc1OC
inactive: DMS-114 11.6 µM | SNB-78 34.8 µM | M19-MEL 33.1 µM | HOP-18 > 100 µM | KM-20L2 33.6 µM | RXF 631 1.74 µM | DMS-273 1.65 µM | XF498 11 µM

CCN(CC)CCCNc1ccc2nnn3c4ccc(O)cc4c(=O)c1c23
inactive: DMS-114 11.7 µM | SNB-78 16.4 µM | M19-MEL 13.8 µM | HOP-18 14.3 µM | KM-20L2 5.3 µM | RXF 631 1.88 µM | T47D 22.3 µM | DMS-273 3.44 µM | XF498 15.5 µM

CCOC(OC1=CCCC1)C(C)[Se]c1ccccc1 (centres undefined)
inactive: DMS-114 6.81 µM | SNB-78 > 100 µM | M19-MEL 24.4 µM | HOP-18 28.2 µM | KM-20L2 29.4 µM | RXF 631 16.5 µM | DMS-273 16.9 µM | XF498 20.4 µM
